# Results as given in patent publication US20200222474A1, “COMPOSITIONS AND METHODS FOR INCREASING PHYTOCHEMICAL BIOAVAILABLITY AND BIOACTIVITY” (North Carolina State University, priority 2017, published 2020).
# How the values were obtained:
# NCK2424 (ΔLBA0726) = test: Phenotypic growth analysis of deletion mutant (phospho-β-glucosidase); format: cell-based, Lactobacillus acidophilus; settings: compared with background Δupp strain
# Procedure: (§1) Phenotypic growth assays were performed using 1% (v/v) overnight cultures of L. acidophilus strains (Table 2) and other Lactobacillus species (Table 3) grown on SDM supplemented with 1% (w/v) glucose to inoculate 200 μL of SDM supplemented with 1% (w/v) of the examined carbohydrate (0.5% in the case of esculin) in 96-well microplate wells (Corning Costar, Corning, N.Y., USA) in duplicate or triplicate wells, respectively. The microplates were sealed with clear adhesive film, incubated at 37° C. in a Fluostar Optima microplate reader (BMG Labtech, Cary, N.C., USA), and the cell optical density (OD600) was monitored for 30 hours.
# Construction of gene deletion mutants. The L. acidophilus NCFM genes LBA0225 and LBA0726, both encoding P-Bgl of glycoside hydrolase family 1 (GH1) enzymes in addition to the LBA0227 and LBA0725 genes encoding an EIIC and an EIICBA components of two PTS systems, respectively, were deleted using the upp-based counterselectable gene replacement system. Briefly, in-frame deletions were constructed by amplifying 650-750 bp of the up- and downstream flanking regions of the deletion targets with two primer pairs (e.g., LBA0225A/LBA0225B and LBA0225C/LBA0225D; Table 4). The resulting purified products were joined by splicing using overlap extension PCR (SOE-PCR63) and amplified to establish the deletion alleles. The SOE-PCR products, that include flanking restriction enzyme sites, were cloned within the BamHI and SacI/EcoRI sites of the pTRK935 integration vector and transformed into E. coli EC101. […]
# To establish the functional significance of these two loci, single deletions of each PTS EII and P-Bgl gene, and a double deletion of both P-Bgl genes were constructed using the upp-based counter-selectable gene replacement system (Table 2) and the growth phenotypes of the mutant strains were analyzed (FIG. 3). […]
# L. acidophilus NCFM = test: Growth of L. acidophilus NCFM on plant glycosides as single carbon source (OD600); format: cell-based, Lactobacillus acidophilus; settings: SDM + 1% (w/v) carbohydrate (0.5% esculin), 37° C., 30 hours; corrected to medium without carbohydrate
# Procedure: For initial growth and gene expression studies, L. acidophilus NCFM was propagated three times in semi-defined medium (SDM) supplemented with either 1% or 0,5% (w/v) of the plant glycoside or carbohydrate (Table 1). For the RNA-seq analysis, cells were harvested by centrifugation (3,220×10 min, 25° C.) in the mid-exponential phase (OD600=0.6-0.8) and stored at −80° C. for subsequent RNA isolation. For the mass spectrometry metabolite analyses, 200 μt samples were taken at 0, 3, 6, 9, 12, and 24 hours of growth; cells were removed by centrifugation; and supernatants were stored at −80° C. for further analysis.
# as §1
# The growth of L. acidophilus NCFM was evaluated on twelve chemically diverse, nutritionally relevant and/or therapeutically active PGs 1; Table 1). FIG. 1A provides the structures and common sources of plant glycoside substrates described herein. The compounds that support growth of Lactobacillus acidophilus are in green. RI: β-D-Glcp; R2: Gentiobioside (β-D-Glcp-(1,6)-D-Glcp); R3: Rutinoside (α-L-Rhaf-(1,6)-D-Glcp). The graph in FIG. 1B depicts plant glycoside utilization analyzed by mass spectrometry and the growth as the maximum OD600. Due to the low solubility of polydatin, OD600 cannot be used as a growth metric and utilization of this compound is confirmed by the production of lactate as well as a high utilization level based on the metabolite analysis.
# NCK2422 (ΔLBA0725) = test: Phenotypic growth analysis of deletion mutant (PTS EIICBA); format: cell-based, Lactobacillus acidophilus
# Procedure: as §1
# Construction of gene deletion mutants. The L. acidophilus NCFM genes LBA0225 and LBA0726, both encoding P-Bgl of glycoside hydrolase family 1 (GH1) enzymes in addition to the LBA0227 and LBA0725 genes encoding an EIIC and an EIICBA components of two PTS systems, respectively, were deleted using the upp-based counterselectable gene replacement system. Briefly, in-frame deletions were constructed by amplifying 650-750 bp of the up- and downstream flanking regions of the deletion targets with two primer pairs (e.g., LBA0225A/LBA0225B and LBA0225C/LBA0225D; Table 4). The resulting purified products were joined by splicing using overlap extension PCR (SOE-PCR63) and amplified to establish the deletion alleles. The SOE-PCR products, that include flanking restriction enzyme sites, were cloned within the BamHI and SacI/EcoRI sites of the pTRK935 integration vector and transformed into E. coli EC101. The resulting recombinant plasmids (pTRK1113-6) were confirmed by DNA sequencing and electroporated into L. acidophilus NCK1910 (Table 2) that contains the pTRK669 helper plasmid, and the recovery of the single- and double-crossover recombinants was performed as previously described. Recombinants carrying the new gene deletion alleles were isolated by colony PCR using primer pairs denoted up/down (e.g., LBA0225up/LBA0225down), which anneal to the flanking regions of the amplicons. Sequence integrity and in-frame deletions were verified by DNA sequencing employing the aforementioned primer pairs and primer denoted mid (e.g., LBA0225mid). The mutations were in-frame deletions of 90-96% of the coding regions.
# To establish the functional significance of these two loci, single deletions of each PTS EII and P-Bgl gene, and a double deletion of both P-Bgl genes were constructed using the upp-based counter-selectable gene replacement system (Table 2) and the growth phenotypes of the mutant strains were analyzed (FIG. 3). Phenotypic growth analyses of deletion mutants of EII PTS transporters (FIGS. 3A, 3C, 3E, 3G, and 3I) and phospho-β-glucosidase (FIGS. 3B, 3D, 3F, 3H, and 3J) on the β-glucosides esculin, salicin, amygdalin and the disaccharides gentiobiose and cellobiose. The background Aupp strain is shown as a grey fill graph and the growth of the mutant strains is shown as: PTS EIIC (LBA0227, pink triangle), the phospho-β-glucosidase (LBA0225, light blue triangles), the PTS EIICBA (LBA0725, yellow squares), the second phospho-β-glucosidase (LBA0726, lilac squares) and the double phospho-β-glucosidase mutant (LBA0225/LBA0726, black stars). The color scheme is consistent with that used for the gene loci in FIG. 2.
# [1] = tested on: L. reuteri (ATCC 23272, DSM 20016); test: Phenotypic growth assay (OD600); format: cell-based; settings: SDM + 1% (w/v) carbohydrate (0.5% esculin), 37° C., 30 hours; corrected to medium without carbohydrate
# Procedure: as §1
# L. animalis DSM 20602 = test: Phenotypic growth assay (OD600); format: cell-based; settings: SDM + 1% (w/v) carbohydrate (0.5% esculin), 37° C., 30 hours; corrected to medium without carbohydrate
# Procedure: as §1
# L. fermentum ATCC 14931 = test: Phenotypic growth assay (OD600); format: cell-based; settings: SDM + 1% (w/v) carbohydrate (0.5% esculin), 37° C., 30 hours; corrected to medium without carbohydrate
# Procedure: as §1
# [2] = tested on: L. plantarum sp. plantarum ATCC 14917, LA70; test: Phenotypic growth assay (OD600); format: cell-based; settings: SDM + 1% (w/v) carbohydrate (0.5% esculin), 37° C., 30 hours; corrected to medium without carbohydrate
# Procedure: as §1
# [3] = tested on: L. amyloverus ATCC 33620, DSM 20531; test: Phenotypic growth assay (OD600); format: cell-based; settings: SDM + 1% (w/v) carbohydrate (0.5% esculin), 37° C., 30 hours; corrected to medium without carbohydrate
# Procedure: as §1
# L. acidophilus LA-1 = test: Phenotypic growth assay (OD600); format: cell-based; settings: SDM + 1% (w/v) carbohydrate (0.5% esculin), 37° C., 30 hours; corrected to medium without carbohydrate
# Procedure: as §1
# L. gasseri ATCC 33323 = test: Phenotypic growth assay (OD600); format: cell-based; settings: SDM + 1% (w/v) carbohydrate (0.5% esculin), 37° C., 30 hours; corrected to medium without carbohydrate
# Procedure: as §1
# [4] = tested on: L. intestinalis Th4, ATCC 49335, DSM 6629; test: Phenotypic growth assay (OD600); format: cell-based; settings: SDM + 1% (w/v) carbohydrate (0.5% esculin), 37° C., 30 hours; corrected to medium without carbohydrate
# Procedure: as §1
# [5] = tested on: L. jensenii ATCC 25258, 62G, DSM 20557; test: Phenotypic growth assay (OD600); format: cell-based; settings: SDM + 1% (w/v) carbohydrate (0.5% esculin), 37° C., 30 hours; corrected to medium without carbohydrate
# Procedure: as §1
# [6] = tested on: L. rhanmosus GG (ATCC 53103); test: Phenotypic growth assay (OD600); format: cell-based; settings: SDM + 1% (w/v) carbohydrate (0.5% esculin), 37° C., 30 hours; corrected to medium without carbohydrate
# Procedure: as §1
# [7] = tested on: L. crispatus ATCC 33820, DSM 20584; test: Phenotypic growth assay (OD600); format: cell-based; settings: SDM + 1% (w/v) carbohydrate (0.5% esculin), 37° C., 30 hours; corrected to medium without carbohydrate
# Procedure: as §1
# L. johnsonii ATCC 33200 = test: Phenotypic growth assay (OD600); format: cell-based; settings: SDM + 1% (w/v) carbohydrate (0.5% esculin), 37° C., 30 hours; corrected to medium without carbohydrate
# Procedure: as §1
# L. helveticus CNRZ32 = test: Phenotypic growth assay (OD600); format: cell-based; settings: SDM + 1% (w/v) carbohydrate (0.5% esculin), 37° C., 30 hours; corrected to medium without carbohydrate
# Procedure: as §1
smiles,measurement,setting,value
"O=C[C@H](O)[C@@H](O)[C@H](O[C@@H]1O[C@H](CO)[C@@H](O)[C@H](O)[C@H]1O)[C@H](O)CO [Cellobiose, reference compound]",growth of the ΔLBA0726 mutant (P-Bgl),NCK2424 (ΔLBA0726),unaffected
same,Growth (OD600 max class) of L. acidophilus NCFM,L. acidophilus NCFM,++ (“++” signifies 0.6 > OD600 max > 0.3.)
same,reduction of growth on inactivation of the EIICBA (LBA0725),NCK2422 (ΔLBA0725),about 50%
same,growth of the ΔLBA0725 mutant (inactive PTS EIICBA),NCK2422 (ΔLBA0725); compared with background Δupp strain,moderately reduced
same,"Growth (OD600 max class) of L. reuteri (ATCC 23272, DSM 20016)",[1],− (“−” signifies OD600 max < 0.1.)
same,Growth (OD600 max class) of L. animalis DSM 20602,L. animalis DSM 20602,+ (“+” signifies 0.3 > OD600 max > 0.1.)
same,Growth (OD600 max class) of L. fermentum ATCC 14931,L. fermentum ATCC 14931,− (“−” signifies OD600 max < 0.1.)
same,"Growth (OD600 max class) of L. plantarum sp. plantarum ATCC 14917, LA70",[2],+++ (“+++” signifies OD600 max > 0.6.)
same,"Growth (OD600 max class) of L. amyloverus ATCC 33620, DSM 20531",[3],+++ (“+++” signifies OD600 max > 0.6.)
same,Growth (OD600 max class) of L. acidophilus LA-1,L. acidophilus LA-1,+++ (“+++” signifies OD600 max > 0.6.)
same,Growth (OD600 max class) of L. gasseri ATCC 33323,L. gasseri ATCC 33323,++ (“++” signifies 0.6 > OD600 max > 0.3.)
same,"Growth (OD600 max class) of L. intestinalis Th4, ATCC 49335, DSM 6629",[4],− (“−” signifies OD600 max < 0.1.)
same,"Growth (OD600 max class) of L. jensenii ATCC 25258, 62G, DSM 20557",[5],++ (“++” signifies 0.6 > OD600 max > 0.3.)
same,Growth (OD600 max class) of L. rhanmosus GG (ATCC 53103),[6],+++ (“+++” signifies OD600 max > 0.6.)
same,"Growth (OD600 max class) of L. crispatus ATCC 33820, DSM 20584",[7],− (“−” signifies OD600 max < 0.1.)
same,Growth (OD600 max class) of L. johnsonii ATCC 33200,L. johnsonii ATCC 33200,+ (“+” signifies 0.3 > OD600 max > 0.1.)
same,Growth (OD600 max class) of L. helveticus CNRZ32,L. helveticus CNRZ32,+ (“+” signifies 0.3 > OD600 max > 0.1.)
